# Laboratory results from ChEMBL document CHEMBL5465560, “Selectivity Literature for EUbOPEN Chemogenomic Library” (2024).
# Key:
# [1] = system: Mast/stem cell growth factor receptor Kit (Homo sapiens), P10721 [V559D]; test: (§1) Selectivity interaction (KinomeScan (DiscoverX)) EUB0000666a KIT; conditions: at 10 µM
# [2] = system: Mast/stem cell growth factor receptor Kit (Homo sapiens), P10721 [L576P]; test: as §1; conditions: at 10 µM
# [3] = system: Mast/stem cell growth factor receptor Kit (Homo sapiens), P10721 [D816V]; test: as §1; conditions: at 10 µM
# Chain of Mast/stem cell growth factor receptor Kit (Homo sapiens), P10721 [D816V] (P10721 whole entry D816V): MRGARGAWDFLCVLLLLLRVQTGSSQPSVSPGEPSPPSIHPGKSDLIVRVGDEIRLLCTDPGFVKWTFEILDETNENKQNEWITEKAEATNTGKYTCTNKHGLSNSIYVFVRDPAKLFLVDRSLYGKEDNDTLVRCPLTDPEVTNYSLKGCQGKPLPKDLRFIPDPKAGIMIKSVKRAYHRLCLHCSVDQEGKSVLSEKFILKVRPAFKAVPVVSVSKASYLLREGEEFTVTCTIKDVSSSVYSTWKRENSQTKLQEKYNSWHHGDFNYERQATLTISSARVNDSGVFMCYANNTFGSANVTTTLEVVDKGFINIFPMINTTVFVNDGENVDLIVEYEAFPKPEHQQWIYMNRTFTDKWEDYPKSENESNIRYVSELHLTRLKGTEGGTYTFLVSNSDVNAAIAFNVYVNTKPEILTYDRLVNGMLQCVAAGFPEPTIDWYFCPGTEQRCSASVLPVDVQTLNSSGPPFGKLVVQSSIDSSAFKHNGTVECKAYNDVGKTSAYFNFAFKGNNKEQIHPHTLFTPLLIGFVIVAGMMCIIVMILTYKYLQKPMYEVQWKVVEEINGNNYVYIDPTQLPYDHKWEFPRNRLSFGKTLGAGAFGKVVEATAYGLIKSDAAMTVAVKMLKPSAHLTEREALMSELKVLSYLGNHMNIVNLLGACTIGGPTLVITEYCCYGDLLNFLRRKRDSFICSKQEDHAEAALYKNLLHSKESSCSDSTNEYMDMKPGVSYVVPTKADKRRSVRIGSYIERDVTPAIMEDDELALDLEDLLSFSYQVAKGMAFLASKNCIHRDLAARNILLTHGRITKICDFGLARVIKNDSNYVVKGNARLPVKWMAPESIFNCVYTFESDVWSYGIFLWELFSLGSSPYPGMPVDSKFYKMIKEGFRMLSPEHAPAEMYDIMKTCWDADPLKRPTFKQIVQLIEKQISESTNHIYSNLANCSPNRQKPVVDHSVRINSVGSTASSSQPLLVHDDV
# [4] = system: Mast/stem cell growth factor receptor Kit (Homo sapiens), P10721 [D816H]; test: as §1; conditions: at 10 µM
# Chain of Mast/stem cell growth factor receptor Kit (Homo sapiens), P10721 [D816H] (P10721 whole entry D816H): as the sequence (P10721 whole entry D816V) above, with V816H counted along it
# [5] = biological target: Mast/stem cell growth factor receptor Kit (Homo sapiens, UniProt P10721); test: as §1; conditions: at 10 µM
# Chain of Mast/stem cell growth factor receptor Kit (P10721 whole entry): as the sequence (P10721 whole entry D816V) above, with V816D counted along it
# [6] = system: Mast/stem cell growth factor receptor Kit (Homo sapiens), P10721 [V559D,T670I]; test: as §1; conditions: at 10 µM
# Chain of Mast/stem cell growth factor receptor Kit (Homo sapiens), P10721 [V559D,T670I] (P10721 whole entry V559D/T670I): as the sequence (P10721 whole entry D816V) above, with V559D, T670I, V816D counted along it
# [7] = system: Mast/stem cell growth factor receptor Kit (Homo sapiens), P10721 [V559D,V654A]; test: as §1; conditions: at 10 µM
# Chain of Mast/stem cell growth factor receptor Kit (Homo sapiens), P10721 [V559D,V654A] (P10721 whole entry V559D/V654A): as the sequence (P10721 whole entry D816V) above, with V559D, V654A, V816D counted along it
# [8] = system: T1, Receptor-type tyrosine-protein kinase FLT3 (Homo sapiens), P36888 [K663Q]; conditions: at 10 µM
# T1 sequence (whole entry): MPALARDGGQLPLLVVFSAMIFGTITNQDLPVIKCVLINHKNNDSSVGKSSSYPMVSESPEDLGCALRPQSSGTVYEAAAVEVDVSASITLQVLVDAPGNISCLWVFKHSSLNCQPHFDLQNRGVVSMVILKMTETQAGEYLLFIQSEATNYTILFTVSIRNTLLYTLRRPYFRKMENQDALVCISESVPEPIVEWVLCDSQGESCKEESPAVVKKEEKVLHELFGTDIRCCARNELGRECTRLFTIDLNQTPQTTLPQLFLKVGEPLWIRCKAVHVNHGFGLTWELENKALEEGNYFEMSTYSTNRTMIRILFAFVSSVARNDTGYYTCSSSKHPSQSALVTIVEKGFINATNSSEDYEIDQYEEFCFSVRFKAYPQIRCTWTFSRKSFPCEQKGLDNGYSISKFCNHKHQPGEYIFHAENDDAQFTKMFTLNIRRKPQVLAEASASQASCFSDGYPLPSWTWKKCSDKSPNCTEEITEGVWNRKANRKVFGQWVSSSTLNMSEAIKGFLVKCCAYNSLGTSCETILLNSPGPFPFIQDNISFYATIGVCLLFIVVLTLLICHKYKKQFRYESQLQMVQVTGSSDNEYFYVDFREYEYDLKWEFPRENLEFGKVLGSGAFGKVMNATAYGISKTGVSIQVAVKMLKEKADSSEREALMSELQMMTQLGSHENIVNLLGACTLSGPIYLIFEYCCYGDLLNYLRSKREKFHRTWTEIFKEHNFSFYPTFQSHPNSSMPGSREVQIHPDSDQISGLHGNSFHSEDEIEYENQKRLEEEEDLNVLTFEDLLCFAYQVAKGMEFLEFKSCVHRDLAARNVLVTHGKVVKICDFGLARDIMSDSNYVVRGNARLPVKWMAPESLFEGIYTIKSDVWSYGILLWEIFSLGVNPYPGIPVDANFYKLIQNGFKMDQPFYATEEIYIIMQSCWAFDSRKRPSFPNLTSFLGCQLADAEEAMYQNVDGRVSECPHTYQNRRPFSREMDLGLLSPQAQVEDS
# [9] = biological target: T2, Serine/threonine-protein kinase DCLK2 (Homo sapiens) (UniProt Q8N568); test: Selectivity interaction (Kinase panel (Invitrogen)) EUB0000639a DCLK2; conditions: at 200 nM
# T2 sequence (whole entry): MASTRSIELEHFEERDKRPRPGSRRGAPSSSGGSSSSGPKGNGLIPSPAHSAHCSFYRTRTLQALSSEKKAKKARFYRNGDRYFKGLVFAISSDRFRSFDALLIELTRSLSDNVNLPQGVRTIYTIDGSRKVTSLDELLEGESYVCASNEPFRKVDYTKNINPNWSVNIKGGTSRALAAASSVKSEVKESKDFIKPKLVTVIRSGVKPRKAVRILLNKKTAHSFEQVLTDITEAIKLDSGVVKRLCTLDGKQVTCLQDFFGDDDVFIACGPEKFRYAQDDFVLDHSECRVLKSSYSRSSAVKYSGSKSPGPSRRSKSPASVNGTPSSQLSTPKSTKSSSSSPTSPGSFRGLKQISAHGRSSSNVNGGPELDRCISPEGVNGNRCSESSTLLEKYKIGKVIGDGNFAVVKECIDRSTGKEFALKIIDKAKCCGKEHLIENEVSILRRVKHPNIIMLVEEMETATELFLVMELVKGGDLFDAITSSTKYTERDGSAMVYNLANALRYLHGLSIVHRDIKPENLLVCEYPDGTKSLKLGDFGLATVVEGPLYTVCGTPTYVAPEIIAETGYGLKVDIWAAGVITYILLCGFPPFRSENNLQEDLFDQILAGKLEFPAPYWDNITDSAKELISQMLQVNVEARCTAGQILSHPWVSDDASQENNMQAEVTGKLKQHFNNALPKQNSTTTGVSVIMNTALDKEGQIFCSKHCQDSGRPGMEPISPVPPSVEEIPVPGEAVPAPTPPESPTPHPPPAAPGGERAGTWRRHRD
# [10] = biological target: T3, Serine/threonine-protein kinase D2 (Homo sapiens) (UniProt Q9BZL6); test: Selectivity interaction (KinomeScan (DiscoverX)) EUB0000045b PRKD2
# T3 sequence (whole entry): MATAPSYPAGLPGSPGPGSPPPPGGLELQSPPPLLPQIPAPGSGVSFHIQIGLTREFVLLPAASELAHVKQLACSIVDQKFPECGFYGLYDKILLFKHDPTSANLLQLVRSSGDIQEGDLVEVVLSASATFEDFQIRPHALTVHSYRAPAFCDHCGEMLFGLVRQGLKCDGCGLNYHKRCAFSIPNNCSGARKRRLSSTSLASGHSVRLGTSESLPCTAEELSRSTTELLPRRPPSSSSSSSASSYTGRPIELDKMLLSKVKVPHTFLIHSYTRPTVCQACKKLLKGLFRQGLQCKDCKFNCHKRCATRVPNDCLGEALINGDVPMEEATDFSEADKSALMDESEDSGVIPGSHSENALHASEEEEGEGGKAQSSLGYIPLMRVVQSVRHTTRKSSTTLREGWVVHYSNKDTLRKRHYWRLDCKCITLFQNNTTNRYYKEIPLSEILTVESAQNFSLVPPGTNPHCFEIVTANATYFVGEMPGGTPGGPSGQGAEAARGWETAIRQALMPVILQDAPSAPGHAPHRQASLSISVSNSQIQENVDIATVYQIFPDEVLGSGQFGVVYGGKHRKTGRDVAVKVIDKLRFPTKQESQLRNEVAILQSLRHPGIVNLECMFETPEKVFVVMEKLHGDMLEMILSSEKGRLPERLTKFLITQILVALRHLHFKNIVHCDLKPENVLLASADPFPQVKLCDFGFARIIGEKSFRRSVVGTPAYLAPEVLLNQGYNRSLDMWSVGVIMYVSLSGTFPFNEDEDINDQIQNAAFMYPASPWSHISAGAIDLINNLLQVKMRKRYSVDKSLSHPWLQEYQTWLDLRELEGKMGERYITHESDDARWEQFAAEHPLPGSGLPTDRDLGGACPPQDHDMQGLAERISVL
# Chain of Mast/stem cell growth factor receptor Kit (Homo sapiens), P10721 [L576P] (P10721 whole entry L576P): as the sequence (P10721 whole entry D816V) above, with L576P, V816D counted along it
# Chain of Mast/stem cell growth factor receptor Kit (Homo sapiens), P10721 [V559D] (P10721 whole entry V559D): as the sequence (P10721 whole entry D816V) above, with V559D, V816D counted along it
structure (smiles),measurement,setting,value
O=C(NOC[C@H](O)CO)c1ccc(F)c(F)c1Nc1ccc(I)cc1F,% of control,[1],74%
same,% of control,[2],75%
same,% of control,[3],87%
same,% of control,[4],91%
same,% of control,[5],92%
same,% of control,[6],90%
same,% of control,[7],100%
Cc1cc([C@@H](C)Nc2ccccc2C(=O)O)c2nc(N3CCOCC3)cc(=O)n2c1 [AZD-6482],% of control,[8],13%
CC[C@@H]1[C@H](F)C(=O)N[C@@H]1COc1nccc2cc(C(N)=O)c(OC)cc12 [ZIMLOVISERTIB],% of inhibition,[9],24.9%
C=CC(=O)Nc1cc(-n2c(=O)ccc3cnc4ccc(-c5ccc(NS(C)(=O)=O)cc5)cc4c32)ccc1C,% of control,[10]; at 1 µM,87%
same,% of control,[10]; at 10 µM,82%
